# From patent US12398141B2 (SHANGHAI SYNERGY PHARMACEUTICAL SCIENCES CO., LTD, priority 2019, dated 2025)
# Where two headings read alike, the source gives them in different places.
# Experiments:
# Format in all cases: biochemical
# JAK1 = JAK1 (Homo sapiens (Human), UniProt P23458); assay: JAK1 LANCE Ultra kinase assay; conditions: for IC50: 38 uM ATP; for JAK2/JAK1: ratio of IC50 JAK2 to IC50 JAK1
# Experimental: Inhibition test on activity of JAK kinase in vitro was carried out by the following methods.
# JAK1 LANCE® Ultra assay, JAK2 LANCE® Ultra assay and JAK3 LANCE® Ultra assay were used to carry out the test separately, and kits of the above assays were supplied by PerkinElmer. […]
# JAK1, JAK2 and JAK3 kinase, ATP and substrates were dissolved and diluted with buffers.
# A test liquid was 2 nM Eu-W1024 anti-phosphotyrosine (PerkinElmer, AD0069). A stop buffer was 10 mM edetic acid (Intech, 1842C505).
# 2.5 μl of an 8-fold solution of the compound and 5 μl of a 4-fold solution of JAK1 or JAK2 or JAK3 kinase were added into a 384-well plate, respectively, and reacted for 10 minutes at room temperature. 2.5 μl of an 8-fold solution of ULight™-JAK-1 peptide/ATP was added and reacted for 90 minutes at room temperature. Finally, 5 μl of 4-fold edetic acid stop buffer and 5 μl of 4-fold test liquid of Eu-W1024 anti-phosphotyrosine were added and incubated for 60 minutes.
# According to the formula: percentage of inhibition rate=(maximum value−transform value)/(maximum value−minimum value)×100, inhibition rate of each compound at various concentrations was calculated. The maximum value was the reference value of dimethyl sulfoxide added into the well plate, the minimum value was the blank value, and the transform value is the value obtained by the well of each compound. The IC50 values of the corresponding compounds were then obtained by fitting by using the XLFit fitting tool in excel.
# JAK2 = JAK2 (Homo sapiens (Human), UniProt O60674); assay: JAK2 LANCE Ultra kinase assay; conditions: 12 uM ATP
# Chain of JAK2 (O60674 whole entry): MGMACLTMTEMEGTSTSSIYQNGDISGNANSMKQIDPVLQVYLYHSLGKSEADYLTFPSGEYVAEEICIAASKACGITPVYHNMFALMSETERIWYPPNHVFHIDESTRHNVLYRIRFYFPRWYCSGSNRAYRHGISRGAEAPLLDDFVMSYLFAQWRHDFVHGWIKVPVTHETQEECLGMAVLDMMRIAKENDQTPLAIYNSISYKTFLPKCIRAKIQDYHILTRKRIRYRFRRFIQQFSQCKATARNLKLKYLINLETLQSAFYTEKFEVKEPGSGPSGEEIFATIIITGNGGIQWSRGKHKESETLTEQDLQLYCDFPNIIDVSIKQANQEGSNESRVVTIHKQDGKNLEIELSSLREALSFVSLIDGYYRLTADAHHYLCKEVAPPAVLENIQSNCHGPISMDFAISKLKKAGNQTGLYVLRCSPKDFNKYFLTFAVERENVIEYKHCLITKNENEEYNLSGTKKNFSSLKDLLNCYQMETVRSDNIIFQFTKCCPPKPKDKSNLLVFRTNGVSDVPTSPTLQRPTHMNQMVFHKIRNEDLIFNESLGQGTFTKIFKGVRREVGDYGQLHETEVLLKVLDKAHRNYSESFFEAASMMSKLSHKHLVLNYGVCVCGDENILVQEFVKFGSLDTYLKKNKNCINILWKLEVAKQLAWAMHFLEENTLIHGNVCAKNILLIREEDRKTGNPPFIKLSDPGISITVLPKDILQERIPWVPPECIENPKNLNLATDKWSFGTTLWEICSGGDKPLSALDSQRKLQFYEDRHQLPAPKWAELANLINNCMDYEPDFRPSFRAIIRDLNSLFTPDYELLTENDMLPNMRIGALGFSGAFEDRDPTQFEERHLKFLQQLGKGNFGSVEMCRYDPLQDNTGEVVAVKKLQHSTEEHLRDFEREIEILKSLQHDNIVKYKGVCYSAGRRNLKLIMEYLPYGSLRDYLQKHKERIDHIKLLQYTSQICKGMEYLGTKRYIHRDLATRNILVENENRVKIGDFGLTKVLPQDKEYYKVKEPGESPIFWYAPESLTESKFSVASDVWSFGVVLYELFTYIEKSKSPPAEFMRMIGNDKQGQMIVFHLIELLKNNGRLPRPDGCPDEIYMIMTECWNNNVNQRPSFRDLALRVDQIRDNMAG
# JAK3 = JAK3 (Homo sapiens (Human), UniProt P52333); assay: JAK3 LANCE Ultra kinase assay
# Chain of JAK3 (P52333 whole entry): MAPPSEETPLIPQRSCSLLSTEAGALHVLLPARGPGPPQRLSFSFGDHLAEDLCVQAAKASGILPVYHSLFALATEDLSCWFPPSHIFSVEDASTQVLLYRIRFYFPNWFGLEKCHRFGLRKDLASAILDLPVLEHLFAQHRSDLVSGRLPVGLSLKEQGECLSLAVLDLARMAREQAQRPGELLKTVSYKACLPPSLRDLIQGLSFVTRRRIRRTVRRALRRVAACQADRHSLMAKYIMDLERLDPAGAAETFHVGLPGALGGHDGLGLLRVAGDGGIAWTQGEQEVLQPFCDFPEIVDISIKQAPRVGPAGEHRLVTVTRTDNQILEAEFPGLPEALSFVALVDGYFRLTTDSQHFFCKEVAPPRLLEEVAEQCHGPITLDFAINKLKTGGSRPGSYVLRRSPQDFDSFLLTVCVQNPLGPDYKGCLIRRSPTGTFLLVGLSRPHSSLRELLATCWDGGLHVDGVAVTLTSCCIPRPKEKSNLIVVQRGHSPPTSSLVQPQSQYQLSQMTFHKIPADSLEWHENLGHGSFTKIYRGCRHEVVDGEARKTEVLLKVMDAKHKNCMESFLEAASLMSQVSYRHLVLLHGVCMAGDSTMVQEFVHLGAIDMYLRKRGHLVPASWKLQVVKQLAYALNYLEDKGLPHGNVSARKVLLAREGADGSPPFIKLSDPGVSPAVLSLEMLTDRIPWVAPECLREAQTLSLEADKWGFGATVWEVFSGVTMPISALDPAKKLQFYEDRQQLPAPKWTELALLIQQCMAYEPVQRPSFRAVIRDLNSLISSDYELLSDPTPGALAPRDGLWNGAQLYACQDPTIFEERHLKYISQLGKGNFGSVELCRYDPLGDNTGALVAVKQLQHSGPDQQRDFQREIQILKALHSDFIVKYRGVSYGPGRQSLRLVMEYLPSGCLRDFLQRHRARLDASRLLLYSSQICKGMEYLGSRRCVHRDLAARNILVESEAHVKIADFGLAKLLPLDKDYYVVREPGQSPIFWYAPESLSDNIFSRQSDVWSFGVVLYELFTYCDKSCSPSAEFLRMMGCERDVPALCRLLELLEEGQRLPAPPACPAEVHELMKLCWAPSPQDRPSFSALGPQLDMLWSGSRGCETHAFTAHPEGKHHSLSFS
# Chain of JAK1 (P23458 whole entry): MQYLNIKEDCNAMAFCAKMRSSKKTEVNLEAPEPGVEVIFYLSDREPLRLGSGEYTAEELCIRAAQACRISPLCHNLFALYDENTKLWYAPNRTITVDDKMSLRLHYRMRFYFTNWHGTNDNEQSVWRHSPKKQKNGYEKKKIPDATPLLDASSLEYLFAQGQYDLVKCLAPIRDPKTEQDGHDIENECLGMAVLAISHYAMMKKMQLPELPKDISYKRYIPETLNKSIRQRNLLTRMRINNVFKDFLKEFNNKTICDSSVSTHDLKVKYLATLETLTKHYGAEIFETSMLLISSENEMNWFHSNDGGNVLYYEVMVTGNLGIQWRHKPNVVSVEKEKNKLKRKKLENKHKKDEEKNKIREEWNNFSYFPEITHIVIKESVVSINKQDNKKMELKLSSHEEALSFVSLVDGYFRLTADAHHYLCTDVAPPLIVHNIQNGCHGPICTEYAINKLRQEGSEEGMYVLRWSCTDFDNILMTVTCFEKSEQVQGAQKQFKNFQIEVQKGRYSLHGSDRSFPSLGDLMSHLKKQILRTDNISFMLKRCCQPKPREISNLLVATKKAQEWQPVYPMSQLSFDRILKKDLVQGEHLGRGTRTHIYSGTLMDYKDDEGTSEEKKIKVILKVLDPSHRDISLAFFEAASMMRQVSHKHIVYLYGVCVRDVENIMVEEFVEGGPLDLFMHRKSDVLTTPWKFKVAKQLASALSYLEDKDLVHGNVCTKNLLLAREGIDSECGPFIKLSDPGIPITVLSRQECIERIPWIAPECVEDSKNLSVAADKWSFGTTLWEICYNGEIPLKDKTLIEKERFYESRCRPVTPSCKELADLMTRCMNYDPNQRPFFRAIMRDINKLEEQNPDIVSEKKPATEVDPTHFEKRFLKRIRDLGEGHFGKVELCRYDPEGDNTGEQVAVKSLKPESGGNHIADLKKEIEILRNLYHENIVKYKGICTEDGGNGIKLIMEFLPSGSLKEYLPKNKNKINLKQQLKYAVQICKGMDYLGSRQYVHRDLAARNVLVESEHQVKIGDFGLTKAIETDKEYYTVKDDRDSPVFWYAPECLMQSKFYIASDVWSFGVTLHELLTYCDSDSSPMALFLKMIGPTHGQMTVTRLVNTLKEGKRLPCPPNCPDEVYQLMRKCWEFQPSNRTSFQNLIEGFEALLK
IC50 (JAK1),JAK2/JAK1 (JAK1),IC50 (JAK2),IC50 (JAK3; 4 uM ATP),SMILES,IC50 (JAK3)
7.86 nM,1.56,12.3 nM,256 nM,"C[C@@H]1CN(C(=O)CC#N)C[C@@H]1N(C)c1c(C#N)cnc2[nH]ccc12 (relative stereo) [Compound H05, (cis)-4-{[4-methyl-1-(2-cyanoacetyl)pyrrolidin-3-yl]-methyl-amino}-1H-pyrrolo[2,3-b]pyridin-5-carbonitrile]",–
8.9 nM,14.16,126 nM,197 nM,"C[C@@H]1CN(S(=O)(=O)C[C@H]2CC[C@H](N(C)c3c(C#N)cnc4[nH]ccc34)CC2)C[C@H]1CO (relative stereo) [Compound H66, 4-((trans-4-(((trans-3-(hydroxymethyl)-4-methylpyrrolidin-1-yl)sulfonyl)methyl)cyclohexyl)(methyl)amino)-1H-pyrrolo[2,3-b]pyridin-5-carbonitrile]",–
4.9 nM,6.12,30 nM,157 nM,"CC(C)[C@@H]1CN(C(=O)NCC(F)(F)F)C[C@@H]1Nc1c(C#N)cnc2[nH]ccc12 (relative stereo) [Compound H73, (cis)-3-((5-cyano-1H-pyrrolo[2,3-b]pyridin-4-yl)amino)-4-isopropyl-N-(2,2,2-trifluoroethyl)pyrrolidin-1-carboxamide]",–
0.95 nM,8.21,7.8 nM,91 nM,"CC[C@@H]1CN(S(=O)(=O)CCC(F)(F)F)C[C@@H]1Nc1c(C#N)cnc2[nH]ccc12 (relative stereo) [Compound H76, 4-(((cis)-4-ethyl-1-((3,3,3-trifluoropropyl)sulfonyl)pyrrolidin-3-yl)amino)-1H-pyrrolo[2,3-b]pyridin-5-carbonitrile]",–
4.2 nM,11.67,49 nM,273 nM,"CC[C@@H]1CN(C(=O)CCC(F)(F)F)C[C@@H]1Nc1c(C#N)cnc2[nH]ccc12 (relative stereo) [Compound H77, 4-(((cis)-4-ethyl-1-(4,4,4-trifluorobutyryl)pyrrolidin-3-yl)amino)-1H-pyrrolo[2,3-b]pyridin-5-carbonitrile]",–
0.96 nM,6.77,6.5 nM,59 nM,"CC[C@@H]1CN(C(=O)NCC(C)C)C[C@@H]1Nc1c(C#N)cnc2[nH]ccc12 (relative stereo) [Compound H79, (cis)-3-((5-cyano-1H-pyrrolo[2,3-b]pyridin-4-yl)amino)-4-ethyl-N-isobutylpyrrolidin-1-carboxamide]",–
9.3 nM,12.58,117 nM,162 nM,"CC[C@@H]1CN(C(=O)CCC#N)C[C@@H]1Nc1c(C#N)cnc2[nH]ccc12 (relative stereo) [Compound H81, 4-(((cis)-1-(3-cyanopropionyl)-4-ethylpyrrolidin-3-yl)amino)-1H-pyrrolo[2,3-b]pyridin-5-carbonitrile]",–
6.9 nM,5.51,38 nM,387 nM,"CC[C@@H]1CN(C(=O)NC2CC2)C[C@@H]1Nc1c(C#N)cnc2[nH]ccc12 (relative stereo) [Compound H84, (cis)-3-((5-cyano-1H-pyrrolo[2,3-b]pyridin-4-yl)amino)-N-cyclopropyl-4-ethylpyrrolidin-1-carboxamide]",–
1.41 nM,20.57,29 nM,169 nM,"CC[C@@H]1CN(C(=O)NCC(C)(C)C)C[C@@H]1Nc1c(C#N)cnc2[nH]ccc12 (relative stereo) [Compound H86, (cis)-3-((5-cyano-1H-pyrrolo[2,3-b]pyridin-4-yl)amino)-4-ethyl-N-neopentyl-pyrrolidin-1-carboxamide]",–
0.86 nM,9.19,7.9 nM,112 nM,"CC[C@@H]1CN(CCC#N)C[C@@H]1Nc1c(C#N)cnc2[nH]ccc12 (relative stereo) [Compound H88, 4-(((cis)-1-(2-cyanoethyl)-4-ethylpyrrolidin-3-yl)amino)-1H-pyrrolo[2,3-b]pyridin-5-carbonitrile]",–
2.9 nM,6.79,19.7 nM,241 nM,"CC[C@@H]1CN(C(=O)NCC(C)(F)F)C[C@@H]1Nc1c(C#N)cnc2[nH]ccc12 (relative stereo) [Compound H89, (cis)-3-((5-cyano-1H-pyrrolo[2,3-b]pyridin-4-yl)amino)-N-(2,2-difluoropropyl)-4-ethylpyrrolidin-1-carboxamide]",–
0.92 nM,20.33,18.7 nM,96 nM,"O=C(NCC(F)(F)F)N1C[C@H](Nc2c(C(F)(F)F)cnc3[nH]ccc23)[C@H](C2CC2)C1 (relative stereo) [Compound H91, (cis)-3-cyclopropyl-N-(2,2,2-trifluoroethyl)-4-((5-(trifluoromethyl)-1H-pyrrolo[2,3-b]pyridin-4-yl)amino)pyrrolidin-1-carboxamide]",–
2.06 nM,5.63,11.6 nM,39.6 nM,"CC[C@@H]1CC(NC(=O)CCC(F)(F)F)C[C@@H]1Nc1c(C#N)cnc2[nH]ccc12 (stereo in doubt) [Compound H59, N-(3-((5-cyano-1H-pyrrolo[2,3-b]pyridin-4-yl)amino)-4-ethylcyclopentyl)-4,4,4-trifluorobutanamide]",–
6.68 nM,–,29.9 nM,96 nM,"C[C@H](O)C(=O)N1C[C@H]2C[C@@H](N(C)c3c(C#N)cnc4[nH]ccc34)C[C@H]2C1 [Compound H06, (3aR,5R,6aS)-4-{[2-((2S)-2-hydroxypropionyl)-hexahydrocyclopenta[c]pyrrole-5-yl]-methyl-amino}-1H-pyrrolo[2,3-b]pyridin-5-carbonitrile]",–
4.98 nM,–,36 nM,143 nM,"CN(c1c(C#N)cnc2[nH]ccc12)[C@H]1C[C@@H](NS(=O)(=O)CCC(F)(F)F)C1 [Compound H10, 4-{[3-(3,3,3-trifluoropropanesulfonamido)-cyclobutyl-1-yl]-methyl-amino}-1H-pyrrolo[2,3-b]pyridin-5-carbonitrile]",–
2.96 nM,7.09,21 nM,58.9 nM,"N#Cc1cnc2[nH]ccc2c1N[C@H]1C[C@@H](NS(=O)(=O)c2cccc(C(F)(F)F)c2)C1 [Compound H13, (cis)-4-{[3-(3-(trifluoromethyl)benzenesulfonamido)-cyclobutyl-1-yl]-amino}-1H-pyrrolo[2,3-b]pyridin-5-carbonitrile]",–
9.16 nM,14.41,132 nM,633 nM,"CN(c1c(C#N)cnc2[nH]ccc12)C1CC(NS(=O)(=O)c2ccc(C(F)(F)F)cc2)C1 (stereo not drawn) [Compound H16, (cis)-4-{[3-(4-trifluoromethylbenzenesulfonamido)-cyclobutyl-1-yl]-methyl-amino}-1H-pyrrolo[2,3-b]pyridin-5-carbonitrile]",–
5 nM,2.60,13 nM,27 nM,"N#Cc1cnc2[nH]ccc2c1N[C@H]1C[C@@H](NS(=O)(=O)c2ccc(C(F)(F)F)cc2)C1 [Compound H17, (cis)-4-{[3-(4-trifluoromethylbenzenesulfonamido)-cyclobutyl-1-yl]-amino}-1H-pyrrolo[2,3-b]pyridin-5-carbonitrile]",–
5.8 nM,–,36 nM,161 nM,"COc1nsc(NC(=O)N2C[C@H]3C[C@H](Nc4c(C#N)cnc5[nH]ccc45)C[C@H]3C2)n1 [Compound H20, (3aR,5s,6aS)-5-((5-cyano-1H-pyrrolo[2,3-b]pyridin-4-yl)amino)-N-(3-methoxy-1,2,4-thiadiazole-5-yl)hexahydrocyclopentadiene[c]pyrrole-2(1H)-carboxamide]",–
9.4 nM,15.40,46 nM,223 nM,"CN(c1c(C#N)cnc2[nH]ccc12)[C@H]1C[C@@H]2CN(C(=O)Nc3nc(C(C)(C)C)ns3)C[C@@H]2C1 [Compound H21, (3aR,5s,6aS)-4-({2-[(3-tert-butyl-1,2,4-thiadiazole-5-yl)carbamoyl]-hexahydrocyclopenta [c]pyrrole-5-yl}-methyl-amino)-1H-pyrrolo[2,3-b]pyridin-5-carbonitrile]",–
7.16 nM,18.85,135 nM,533 nM,"C[C@H](O)C(=O)N1C[C@H]2C[C@H](N(C)c3c(C#N)cnc4[nH]ccc34)C[C@H]2C1 [Compound H23, (3aR,5S,6aS)-4-{[2-((2S)-2-hydroxypropionyl)-hexahydrocyclopenta[c]pyrrole-5-yl]-methyl-amino}-1H-pyrrolo[2,3-b]pyridin-5-carbonitrile]",–
5.1 nM,2.40,12.6 nM,28 nM,CN(c1c(C#N)cnc2[nH]ccc12)[C@H]1C[C@@H]2CN(S(=O)(=O)c3cccc(C(F)(F)F)c3)C[C@@H]2C1 [Compound H24],–

SMILES,IC50 (JAK1),JAK2/JAK1 (JAK1),IC50 (JAK2),IC50 (JAK3; 4 uM ATP),IC50 (JAK3)
CC[C@@H]1CN(C(=O)NC(C)C)C[C@@H]1Nc1c(C#N)cnc2[nH]ccc12 (relative stereo) [Compound H75],–,–,17.3 nM,–,89 nM
